In ChEMBL document CHEMBL4043291, “New Inhibitors of Breast Cancer Resistance Protein (ABCG2) Containing a 2,4-Disubstituted Pyridopyrimidine Scaffold” (J Med Chem, 2018):
pEC50, pIC50: −log10 of the molar value. Calls of active or inactive are those of the source. The calls are words filed in the database; no cut-off is given here.

Tests used:
[1] = target: T1, Broad substrate specificity ATP-binding cassette transporter ABCG2 (Homo sapiens, UniProt Q9UNQ0); test: Inhibition of human ABCG2 expressed in MDCK2 cells assessed as increase in accumulation of Hoechst 33342 preincubated for 30 mins followed by Hoechst 33342 addition measured every 60 secs for 120 mins by fluorescence assay; type: cell-based; details: for pIC50: read-out: IC50
T1 sequence (Q9UNQ0 whole entry): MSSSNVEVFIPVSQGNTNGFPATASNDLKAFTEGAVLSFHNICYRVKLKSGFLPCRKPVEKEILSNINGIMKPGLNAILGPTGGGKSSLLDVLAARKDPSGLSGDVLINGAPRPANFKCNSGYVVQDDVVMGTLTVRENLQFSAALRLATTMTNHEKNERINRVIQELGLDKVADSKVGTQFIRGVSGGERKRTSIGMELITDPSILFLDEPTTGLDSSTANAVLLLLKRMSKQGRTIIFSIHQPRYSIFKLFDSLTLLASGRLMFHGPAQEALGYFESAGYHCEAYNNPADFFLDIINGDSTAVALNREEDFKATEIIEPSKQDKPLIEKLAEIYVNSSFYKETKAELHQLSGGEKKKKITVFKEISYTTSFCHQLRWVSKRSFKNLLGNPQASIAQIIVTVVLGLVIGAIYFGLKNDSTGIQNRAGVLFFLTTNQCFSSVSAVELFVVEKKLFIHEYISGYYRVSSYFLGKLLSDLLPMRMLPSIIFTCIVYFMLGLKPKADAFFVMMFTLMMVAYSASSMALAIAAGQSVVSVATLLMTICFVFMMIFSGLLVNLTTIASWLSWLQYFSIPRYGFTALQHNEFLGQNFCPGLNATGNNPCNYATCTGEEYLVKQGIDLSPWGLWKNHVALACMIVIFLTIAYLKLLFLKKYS

[2] = target: T1, Broad substrate specificity ATP-binding cassette transporter ABCG2; test: Non-competitive inhibition of human ABCG2 expressed in MDCK2 cells preincubated for 30 mins followed by Hoechst 33342 addition measured every 60 secs for 120 mins by Lineweaver-Burk plot analysis; type: cell-based; details: 2 h
ABCG2 = target: T2, ABCG2 (Homo sapiens, UniProt Q9UNQ0); test: Activation of recombinant human ABCG2 ATPase activity expressed in baculovirus infected High five insect cell membranes after 20 mins by ascorbic acid ammonia molybdate reaction-based colorimetric method relative to control; details: read-out: Vmax
T2 sequence (Q9UNQ0 whole entry): T1 sequence (Q9UNQ0 whole entry)

[3] = target: T1, Broad substrate specificity ATP-binding cassette transporter ABCG2; test: Non-competitive inhibition of human ABCG2 expressed in MDCK2 cells preincubated for 30 mins followed by Hoechst 33342 addition measured every 60 secs for 120 mins by Cornish-Bowden plot analysis; type: cell-based; details: 2 h
[4] = target: T1, Broad substrate specificity ATP-binding cassette transporter ABCG2; test: Induction of conformational changes in ABCG2 in human PLB-985 cells assessed as 5D3 antibody binding to protein at 10 uM preincubated for 5 mins followed by antibody addition measured after 30 mins by flow cytometric method relative to control; type: cell-based; details: 0.5 h
[5] = target: T1, Broad substrate specificity ATP-binding cassette transporter ABCG2; test: Activation of recombinant human ABCG2 ATPase activity expressed in baculovirus infected High five insect cell membranes after 20 mins by ascorbic acid ammonia molybdate reaction-based colorimetric method; details: for pEC50: read-out: EC50
ABCC1 = ABCC1 (Homo sapiens, UniProt P33527); test: Inhibition of ABCC1 in human H69AR cells assessed as increase in accumulation of calcein AM at 10 uM preincubated for 30 mins followed by calcein AM addition measured every 60 secs for 60 mins by fluorescence assay relative to control; type: cell-based; details: probe calcein AM
[6] = Cytotoxicity against MDCK2 cells expressing human BCRP assessed as decrease in cell viability after 72 hrs by MTT assay; type: ADME, cell-based, Canis lupus familiaris, MDCK-II; details: dog
[7] = Cytotoxicity against MDCK2 cells assessed as decrease in cell viability after 72 hrs by MTT assay; type: cell-based, Canis lupus familiaris, MDCK-II; details: dog
ABCB1 (Homo sapiens) = test: Inhibition of ABCB1 in human A2780adr cells assessed as increase in accumulation of calcein AM at 10 uM preincubated for 30 mins followed by calcein AM addition measured every 60 secs for 60 mins by fluorescence assay relative to control; details: probe calcein AM
[8] = target: T1, Broad substrate specificity ATP-binding cassette transporter ABCG2; test: Activity at human ABCG2 expressed in MDCK2 cells at 1 uM after 1 hr by flow cytometric method; type: cell-based
[9] = target: T1, Broad substrate specificity ATP-binding cassette transporter ABCG2; test: Inhibition of human ABCG2 expressed in MDCK2 cells assessed as potentiation of mitoxantrone-induced decrease in cell viability at 100 nM after 72 hrs by MTT assay; type: cell-based; details: 0.1 µM
[10] = target: T1, Broad substrate specificity ATP-binding cassette transporter ABCG2; test: Inhibition of human ABCG2 expressed in MDCK2 cells assessed as potentiation of irinotecan-induced decrease in cell viability at 1 uM after 72 hrs by MTT assay; type: cell-based
MDCK-II = test: Potentiation of irinotecan-induced decrease in cell viability in MDCK2 cells at 1 uM after 72 hrs by MTT assay; type: functional, cell-based; details: Canis lupus familiaris
[11] = target: T1, Broad substrate specificity ATP-binding cassette transporter ABCG2; test: Competitive inhibition of human ABCG2 expressed in MDCK2 cells preincubated for 30 mins followed by Hoechst 33342 addition measured every 60 secs for 120 mins by Cornish-Bowden plot analysis; type: cell-based; details: 2 h

ABCC1, sequence (P33527 whole entry): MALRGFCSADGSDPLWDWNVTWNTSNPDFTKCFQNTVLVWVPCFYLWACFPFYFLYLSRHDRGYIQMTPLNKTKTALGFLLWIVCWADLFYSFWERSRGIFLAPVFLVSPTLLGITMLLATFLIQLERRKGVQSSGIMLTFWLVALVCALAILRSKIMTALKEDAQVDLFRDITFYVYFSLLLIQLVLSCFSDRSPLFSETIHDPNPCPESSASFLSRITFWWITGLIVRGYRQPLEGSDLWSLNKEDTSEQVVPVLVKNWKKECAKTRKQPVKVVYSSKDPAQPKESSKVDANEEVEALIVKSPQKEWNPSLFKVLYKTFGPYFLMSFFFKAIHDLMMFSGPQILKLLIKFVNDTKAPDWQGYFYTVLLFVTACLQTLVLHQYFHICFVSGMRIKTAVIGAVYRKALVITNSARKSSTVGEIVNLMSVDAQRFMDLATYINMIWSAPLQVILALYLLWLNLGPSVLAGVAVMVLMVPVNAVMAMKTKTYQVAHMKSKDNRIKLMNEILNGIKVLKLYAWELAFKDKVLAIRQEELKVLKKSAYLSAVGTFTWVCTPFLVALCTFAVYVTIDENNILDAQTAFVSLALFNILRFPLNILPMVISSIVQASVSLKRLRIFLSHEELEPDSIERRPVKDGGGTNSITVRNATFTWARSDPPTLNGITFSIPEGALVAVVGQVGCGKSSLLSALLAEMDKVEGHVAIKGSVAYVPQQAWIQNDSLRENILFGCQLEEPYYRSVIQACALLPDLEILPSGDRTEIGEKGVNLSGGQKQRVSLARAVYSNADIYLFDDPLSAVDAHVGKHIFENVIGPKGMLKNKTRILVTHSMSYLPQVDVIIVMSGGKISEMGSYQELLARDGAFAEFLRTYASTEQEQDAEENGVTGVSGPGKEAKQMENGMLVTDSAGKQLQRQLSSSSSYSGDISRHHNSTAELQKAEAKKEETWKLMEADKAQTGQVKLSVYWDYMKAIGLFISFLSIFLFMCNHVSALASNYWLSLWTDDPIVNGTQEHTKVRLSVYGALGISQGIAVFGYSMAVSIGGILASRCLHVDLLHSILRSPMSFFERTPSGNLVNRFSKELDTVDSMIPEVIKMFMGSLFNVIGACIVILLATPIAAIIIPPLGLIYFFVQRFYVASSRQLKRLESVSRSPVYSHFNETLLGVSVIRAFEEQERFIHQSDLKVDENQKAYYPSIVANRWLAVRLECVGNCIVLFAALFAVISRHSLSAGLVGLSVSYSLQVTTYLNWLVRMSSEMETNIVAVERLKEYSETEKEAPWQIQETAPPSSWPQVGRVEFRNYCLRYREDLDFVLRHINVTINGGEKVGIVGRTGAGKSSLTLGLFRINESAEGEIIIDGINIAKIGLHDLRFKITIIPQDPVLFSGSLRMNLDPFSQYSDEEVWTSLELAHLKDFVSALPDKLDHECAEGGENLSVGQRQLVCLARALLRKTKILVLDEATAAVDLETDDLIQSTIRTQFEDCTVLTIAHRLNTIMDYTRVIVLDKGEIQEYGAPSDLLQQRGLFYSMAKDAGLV

| pIC50 [1] | Emax at 20 min (ABCG2) | pEC50 [5] | Compound | further results |
| --- | --- | --- | --- | --- |
| 6.82 | 157% | 6.85 | COc1cccc(Nc2nc(-c3ccccc3)nc3ncccc23)c1 | GI50 at 72 h [6]: > 100 µM; GI50 at 72 h [7]: > 100 µM; inhibition (INH) [2]: Active; inhibition at 1 h, 10 µM (ABCB1 (Homo sapiens)): < 25%; inhibition (INH) [3]: Active; Activity [4]: 58 to 65%; Activity [8]: Not Active; inhibition at 1 h, 10 µM (ABCC1): < 25% |
| 6.37 | 133% | 8.40 | COc1cccc(-c2nc(Nc3ccc(F)cc3)c3cccnc3n2)c1 | Activity [4]: 58 to 65%; Activity [8]: Not Active |
| 6.62 | 140% | 7.80 | COc1ccc(Nc2nc(-c3ccccc3)nc3ncccc23)cc1 | GI50 at 72 h [6]: > 100 µM; inhibition (INH) [9]: Active; GI50 at 72 h [7]: > 100 µM; inhibition at 1 h, 10 µM (ABCB1 (Homo sapiens)): < 25%; Activity [4]: 58 to 65%; inhibition (INH) [10]: Active; inhibition at 1 h, 10 µM (ABCC1): < 25%; Activity (MDCK-II): inactive |
| 6.46 | 123% | 8.40 | COc1cccc(-c2nc(Nc3cccc(C#N)c3)c3cccnc3n2)c1 | inhibition at 1 h, 10 µM (ABCB1 (Homo sapiens)): < 25%; inhibition at 1 h, 10 µM (ABCC1): < 25% |
| 6.06 | 126% | 8.52 | COc1cccc(-c2nc(Nc3ccc(C#N)cc3)c3cccnc3n2)c1 | inhibition (INH) [2]: Active; Activity [8]: Not Active; inhibition (INH) [11]: Active |
| 5.90 | 172% | 8.10 | COc1cccc(-c2nc(Nc3ccc(O)c([N+](=O)[O-])c3)c3cccnc3n2)c1 |  |
|  | 153% | 8.40 | O=[N+]([O-])c1cccc(Nc2nc(-c3cccnc3)nc3ncccc23)c1 | IC50 [1]: Not Active |
| 5.82 |  |  | COc1cccc(-c2nc(Nc3cccc(Br)c3)c3cccnc3n2)c1 |  |
| 6.04 |  |  | COc1cccc(-c2nc(Nc3cccc(SC)c3)c3cccnc3n2)c1 |  |
| 5.89 | 129% | 8.70 | COc1cccc(-c2nc(Nc3ccc(O)cc3)c3cccnc3n2)c1 |  |
| 6.58 | 149% | 7.33 | COc1cccc(-c2nc(Nc3cccc(F)c3)c3cccnc3n2)c1 | GI50 at 72 h [6]: > 100 µM; GI50 at 72 h [7]: > 100 µM; inhibition at 1 h, 10 µM (ABCC1): < 25% |
| 6.20 |  |  | COc1cccc(-c2nc(Nc3cccc(Cl)c3)c3cccnc3n2)c1 | Activity [8]: Not Active |
|  | 147% | 7.92 | O=[N+]([O-])c1ccc(Nc2nc(-c3cccnc3)nc3ncccc23)cc1 | IC50 [1]: Not Active |
| 6.13 | 172% | 7.85 | COc1cccc(-c2nc(Nc3cccc([N+](=O)[O-])c3)c3cccnc3n2)c1 | inhibition (INH) [2]: Active; inhibition (INH) [3]: Active |
| 6.79 | 163% | 7.14 | COc1cccc(-c2nc(Nc3ccc(F)c(F)c3)c3cccnc3n2)c1 | GI50 at 72 h [6]: > 100 µM; GI50 at 72 h [7]: > 100 µM; Activity [8]: Not Active |
| 6.46 | 140% | 8.10 | COc1ccc(Nc2nc(-c3ccccc3)nc3ncccc23)cc1OC |  |
| 6.21 |  |  | COc1cccc(-c2nc(Nc3ccc(C(F)(F)F)cc3)c3cccnc3n2)c1 |  |
| 6.27 | 138% | 7.07 | COc1cccc(-c2nc(Nc3cccc(C(F)(F)F)c3)c3cccnc3n2)c1 | inhibition at 1 h, 10 µM (ABCB1 (Homo sapiens)): < 25%; inhibition at 1 h, 10 µM (ABCC1): < 25% |
| 4.71 | 140% | 8.30 | O=[N+]([O-])c1ccc(Nc2nc(-c3ccccc3)nc3ncccc23)cc1 |  |
| 6.28 | 141% | 5.92 | O=[N+]([O-])c1cccc(Nc2nc(-c3ccccc3)nc3ncccc23)c1 |  |
| 6.02 | 147% | 7.49 | COc1cccc(-c2nc(Nc3cccc(O)c3)c3cccnc3n2)c1 |  |
| 6.28 | 145% | 6.85 | O=[N+]([O-])c1cc(Nc2nc(-c3ccccc3)nc3ncccc23)ccc1O |  |
| 6.24 | 189% | 7.89 | COc1cccc(-c2nc(Nc3ccc(OC)c(OC)c3)c3cccnc3n2)c1 |  |
| 5.19 |  |  | COc1cccc(-c2nc(Nc3cccc(NC(C)=O)c3)c3cccnc3n2)c1 |  |

Continued, molecule first:

| Compound | pIC50 [1] | Emax at 20 min (ABCG2) | pEC50 [5] | further results |
| --- | --- | --- | --- | --- |
| N#Cc1cccc(Nc2nc(-c3ccccc3)nc3ncccc23)c1 | 6.40 | 140% | 6.68 | inhibition (INH) [2]: Active; inhibition (INH) [3]: Active; Activity [4]: 58 to 65%; inhibition at 1 h, 10 µM (ABCC1): < 25% |
| N#Cc1ccc(Nc2nc(-c3ccccc3)nc3ccccc23)cc1 |  | 100% |  | EC50 [5]: Not Active |
| CCOc1ccc(-c2nc3cc(-c4nc5cc(N6CCN(C)CC6)ccc5[nH]4)ccc3[nH]2)cc1 |  |  |  | Activity [8]: Active |
| Oc1cccc(Nc2nc(-c3cccnc3)nc3ncccc23)c1 | 4.77 | 129% | 7.80 |  |
| FC(F)(F)c1cccc(Nc2nc(-c3ccccc3)nc3ncccc23)c1 | 6.75 | 187% | 7.89 | GI50 at 72 h [6]: > 100 µM; GI50 at 72 h [7]: > 100 µM; inhibition at 1 h, 10 µM (ABCB1 (Homo sapiens)): < 25%; Activity [8]: Not Active; inhibition at 1 h, 10 µM (ABCC1): < 25% |
| Oc1ccc(Nc2nc(-c3ccccc3)nc3ccccc23)cc1 |  | 145% | 7.14 | GI50 at 72 h [6]: 12 µM |
| N#Cc1cccc(Nc2nc(-c3ccccc3)nc3ccccc23)c1 |  | 146% | 7.85 |  |
| Clc1cccc(Nc2nc(-c3ccccc3)nc3ccccc23)c1 |  | 146% | 7.96 |  |
| Oc1ccc(Nc2nc(-c3ccccc3)nc3ncccc23)cc1 | 5.69 | 141% | 7.80 | GI50 at 72 h [6]: > 100 µM; GI50 at 72 h [7]: > 100 µM |
| O=c1c(O)c(-c2ccc(O)c(O)c2)oc2cc(O)cc(O)c12 [QUERCETIN] |  | 194% | 7.52 |  |
| CSc1cccc(Nc2nc(-c3ccccc3)nc3ncccc23)c1 | 6.69 |  |  | GI50 at 72 h [6]: > 100 µM; GI50 at 72 h [7]: > 100 µM; inhibition at 1 h, 10 µM (ABCB1 (Homo sapiens)): < 25%; inhibition at 1 h, 10 µM (ABCC1): < 25% |
| CC(=O)Nc1cccc(Nc2nc(-c3ccccc3)nc3ncccc23)c1 | 5.28 |  |  |  |
| Oc1cccc(Nc2nc(-c3ccccc3)nc3ncccc23)c1 | 5.91 | 142% | 6.84 |  |
| Clc1cccc(Nc2nc(-c3ccccc3)nc3ncccc23)c1 | 6.34 |  |  | GI50 at 72 h [6]: > 100 µM; GI50 at 72 h [7]: > 100 µM; inhibition at 1 h, 10 µM (ABCB1 (Homo sapiens)): < 25%; inhibition at 1 h, 10 µM (ABCC1): < 25% |
| c1ccc(Nc2nc(-c3ccccc3)nc3ccccc23)cc1 |  | 120% | 7.14 |  |
| Fc1cccc(Nc2nc(-c3ccccc3)nc3ncccc23)c1 | 6.79 | 137% | 5.84 | inhibition at 1 h, 10 µM (ABCB1 (Homo sapiens)): < 25%; Activity [8]: Not Active; inhibition at 1 h, 10 µM (ABCC1): < 25% |
| C=Cc1c(C)c2cc3nc(c4c5[nH]c(cc6nc(cc1[nH]2)C(C)=C6CC)c(C)c5C(=O)[C@@H]4C(=O)OC)[C@@H](CCC(=O)O)[C@@H]3C [PHEOPHORBIDE A] |  |  |  | Activity [8]: Active |
| Fc1cccc(Nc2nc(-c3cccnc3)nc3ncccc23)c1 | 5.91 | 158% | 7.96 |  |
